Test results: patent US10052385B2, “Formulations of bendamustine” (Eagle Pharmaceuticals, Inc., priority 2012, dated 2018)
Structures can show the parent of a compound that is named as a salt. Where two headings read alike, the source gives them in different places.

Assay: Solubility of bendamustine HCl in 0.9% saline with non-aqueous solubilizer (Example 1)
Format: physicochemical
Settings: for solubility at 30 min: 22.5 °C; for solubility at 30 min / solubility at 24 h: thermodynamic from solid; for solubility at 24 h: 5 °C
Procedure: Essentially, an excess of bendamustine HCl was added to solvents comprising of various volume percent of the non-aqueous solubilizer in 0.9% saline, and allowed to equilibrate with shaking for 30 minutes at room temperature, or for 24 hours at refrigerated temperature. At the end of the equilibration step, the suspensions were filtered through a 0.2 micron filter to remove undissolved bendamustine, and the filtrate solutions analyzed for bendamustine HCl content using a HPLC assay; quantification was performed against a bendamustine HCl reference standard.

Cn1c(CCCC(=O)O)nc2cc(N(CCCl)CCCl)ccc21 [bendamustine HCl]
solubility at 30 min (0.9% saline with 5 mg/ml monothioglycerol, saline or isotonic, Room temperature, API Source B, solvent also contained 5 mg/ml monothioglycerol, 100.0% Normal Saline, 0.0% Non-aqueous Solubilizer, read-out: Solubility of bendamustine HCl): ~3300 µg/mL | solubility at 24 h (0.9% saline, saline or isotonic, 5° C., API Source A, 100.0% Normal Saline, 0.0% Non-aqueous Solubilizer (90:10 PEG 400/PG), read-out: Solubility of bendamustine HCl): 1180 µg/mL | solubility at 30 min (0.9% saline, saline or isotonic, Room temperature, API Source A, 100.0% Normal Saline, 0.0% Non-aqueous Solubilizer (90:10 PEG 400/PG), read-out: Solubility of bendamustine HCl): 3460 µg/mL | solubility at 24 h (aqueous with cosolvent or surfactant or cyclodextrin, 5° C., API Source A, 80.0% Normal Saline, 20.0% Non-aqueous Solubilizer (90:10 PEG 400/PG), read-out: Solubility of bendamustine HCl): 3820 µg/mL | solubility at 24 h (aqueous with cosolvent or surfactant or cyclodextrin, 5° C., API Source A, 82.5% Normal Saline, 17.5% Non-aqueous Solubilizer (90:10 PEG 400/PG), read-out: Solubility of bendamustine HCl): 3330 µg/mL | solubility at 24 h (aqueous with cosolvent or surfactant or cyclodextrin, 5° C., API Source A, 85.0% Normal Saline, […] Non-aqueous Solubilizer (90:10 PEG 400/PG), read-out: Solubility of bendamustine HCl): 2900 µg/mL | solubility at 24 h (aqueous with cosolvent or surfactant or cyclodextrin, 5° C., API Source A, 90.0% Normal Saline, 10.0% Non-aqueous Solubilizer (90:10 PEG 400/PG), read-out: Solubility of bendamustine HCl): 2430 µg/mL | solubility at 24 h (aqueous with cosolvent or surfactant or cyclodextrin, 5° C., API Source A, 95.0% Normal Saline, 5.0% Non-aqueous Solubilizer (90:10 PEG 400/PG), read-out: Solubility of bendamustine HCl): 2020 µg/mL | solubility at 24 h (aqueous with cosolvent or surfactant or cyclodextrin, refrigerated, 19.4% of the non-aqueous component in the final 100 ml admixture, read-out: solubility of bendamustine HCl in final admixture): ~3800 µg/mL | solubility at 30 min (aqueous with cosolvent or surfactant or cyclodextrin, Room temperature, API Source A, 70.0% Normal Saline, 30.0% Non-aqueous Solubilizer (90:10 PEG 400/PG), read-out: Solubility of bendamustine HCl): 12000 µg/mL | solubility at 30 min (aqueous with cosolvent or surfactant or cyclodextrin, Room temperature, API Source A, 80.0% Normal Saline, 20.0% Non-aqueous Solubilizer (90:10 PEG 400/PG), read-out: Solubility of bendamustine HCl): 8640 µg/mL | solubility at 30 min (aqueous with cosolvent or surfactant or cyclodextrin, Room temperature, API Source A, 85.0% Normal Saline, […] Non-aqueous Solubilizer (90:10 PEG 400/PG), read-out: Solubility of bendamustine HCl): 7010 µg/mL | solubility at 30 min (aqueous with cosolvent or surfactant or cyclodextrin, Room temperature, API Source A, 90.0% Normal Saline, 10.0% Non-aqueous Solubilizer (90:10 PEG 400/PG), read-out: Solubility of bendamustine HCl): 5630 µg/mL | solubility at 30 min (aqueous with cosolvent or surfactant or cyclodextrin, Room temperature, API Source A, 95.0% Normal Saline, 5.0% Non-aqueous Solubilizer (90:10 PEG 400/PG), read-out: Solubility of bendamustine HCl): 4430 µg/mL | solubility at 30 min (aqueous with cosolvent or surfactant or cyclodextrin, room temperature, 16.1% of the non-aqueous component in the final 50 ml admixture, read-out: room temperature solubility of bendamustine HCl in final admixture): ~6500 µg/mL | solubility at 30 min (saline or isotonic, Room temperature, API Source A, 97.5% Normal Saline, 2.5% Non-aqueous Solubilizer (90:10 PEG 400/PG), read-out: Solubility of bendamustine HCl): 3990 µg/mL | solubility at 30 min (saline or isotonic, Room temperature, API Source B, solvent also contained 5 mg/ml monothioglycerol, 97.5% Normal Saline, 2.5% Non-aqueous Solubilizer, read-out: Solubility of bendamustine HCl): 3890 µg/mL | Solubility of bendamustine HCl (Room temperature, API Source B, solvent also contained 5 mg/ml monothioglycerol, 70.0% Normal Saline, 30.0% Non-aqueous Solubilizer): 11407 µg/mL | Solubility of bendamustine HCl (Room temperature, API Source B, solvent also contained 5 mg/ml monothioglycerol, 80.0% Normal Saline, 20.0% Non-aqueous Solubilizer, HCl): 8492 µg/mL | Solubility of bendamustine HCl (Room temperature, API Source B, solvent also contained 5 mg/ml monothioglycerol, 82.5% Normal Saline, 17.5% Non-aqueous Solubilizer): 7641 µg/mL | Solubility of bendamustine HCl (Room temperature, API Source B, solvent also contained 5 mg/ml monothioglycerol, 85.0% Normal Saline, […] Non-aqueous Solubilizer): 6554 µg/mL | Solubility of bendamustine HCl (Room temperature, API Source B, solvent also contained 5 mg/ml monothioglycerol, 87.5% Normal Saline, 12.5% Non-aqueous Solubilizer): 5825 µg/mL | Solubility of bendamustine HCl (Room temperature, API Source B, solvent also contained 5 mg/ml monothioglycerol, 90.0% Normal Saline, 10.0% Non-aqueous Solubilizer): 5351 µg/mL | Solubility of bendamustine HCl (Room temperature, API Source B, solvent also contained 5 mg/ml monothioglycerol, 92.5% Normal Saline, 7.5% Non-aqueous Solubilizer): 4742 µg/mL | Solubility of bendamustine HCl (Room temperature, API Source B, solvent also contained 5 mg/ml monothioglycerol, 95.0% Normal Saline, 5.0% Non-aqueous Solubilizer): 4204 µg/mL
